The results in this text go back to patent publication US9108944B2, “Androgen receptor modulators and uses thereof” (ARAGON PHARMACEUTICALS, INC., priority 2010, dated 2015).

Bounds are passed on as bounds.

By IC50 is commonly meant the concentration at which inhibition is half-maximal.

For the test, the target named is T1, AR-VP16 (Homo sapiens, UniProt P10275).
T1 sequence (P10275 560-920 limits assumed): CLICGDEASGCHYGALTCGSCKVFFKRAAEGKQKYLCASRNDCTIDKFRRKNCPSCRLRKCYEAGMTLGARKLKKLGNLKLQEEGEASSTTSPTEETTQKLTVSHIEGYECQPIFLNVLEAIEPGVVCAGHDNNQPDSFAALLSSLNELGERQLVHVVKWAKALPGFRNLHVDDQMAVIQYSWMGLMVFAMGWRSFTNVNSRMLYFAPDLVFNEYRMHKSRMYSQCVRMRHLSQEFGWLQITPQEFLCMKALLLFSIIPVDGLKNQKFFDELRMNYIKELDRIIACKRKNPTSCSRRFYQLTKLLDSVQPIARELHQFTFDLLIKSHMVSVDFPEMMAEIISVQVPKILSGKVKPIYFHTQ
Description: AR-VP16 DNA Binding Assay, antagonist mode (HepG2 cells, 0.1 nM R1881). The format is cell-based. How it is done: Cells were transiently transfected using Lipofectin (Life Technologies) according to the manufacturer's protocol. […] Transfected cells were incubated overnight then treated with ligand. […] For antagonist assays, the compounds were serially diluted and 50 μL of compound with RPMI supplemented with charcoal stripped serum plus methyltrienolone (R1881) were added to the cells. The final R1881 concentration used in the antagonist assays was 0.1 nM. Following 48 hour incubation the medium was removed and the cells were lysed in 40 μL of lysis buffer (25 mM Tris Phosphate, 2 mM CDTA, 10% Glycerol, 0.5% Triton X-100, 2 mM DTT).
As for `Cc1ccc(N2C(=S)N(c3ccc(C#N)c4ccccc34)C(=O)C23CCC3)cc1` [Compound 94, 4-(8-Oxo-6-thioxo-5-(p-tolyl)-5,7-diazaspiro[3.4]octan-7-yl)-1-naphthonitrile], the IC50 is < 1000 nM.

As for `CNC(=O)c1ccc(N2C(=S)N(c3ccc(C#N)c4ccccc34)C(=O)C23CCC3)cc1F` [Compound 95, 4-(7-(4-Cyanonaphthalen-1-yl)-8-oxo-6-thioxo-5,7-diazaspiro[3.4]octan-5-yl)-2-fluoro-N-methylbenzamide], the IC50 was < 1000 nM.

On to `Cc1cncc(-c2ccc(N3C(=S)N(c4cnc(C#N)c(C)c4)C(=O)C34CCC4)cc2)c1` [Compound 98, 3-Methyl-5-(5-(4-(5-methylpyridin-3-yl)phenyl)-8-oxo-6-thioxo-5,7-diazaspiro[3.4]octan-7-yl)picolinonitrile], for which the IC50 is < 1000 nM.

For `CC1(C)C(=O)N(c2cnc(C#N)c(C(F)(F)F)c2)C(=S)N1c1ccc(O)cc1` [Compound 100, 5-(3-(4-Hydroxyphenyl)-4,4-dimethyl-5-oxo-2-thioxoimidazolidin-1-yl)-3-(trifluoromethyl)picolinonitrile], the IC50 is < 1000 nM.

`Cc1cc(N2C(=O)C3(CCC3)N(c3ccc(N(C)C4CCN(C)CC4)cc3)C2=S)cnc1C#N` [Compound 102, 3-Methyl-5-(5-(4-(methyl(1-methylpiperidin-4-yl)amino)phenyl)-8-oxo-6-thioxo-5,7-diazaspiro[3.4]octan-7-yl)picolinonitrile]: the IC50 was > 1000 nM.

Take `Cc1cc(N2C(=O)C3(CCC3)N(c3ccc(-c4cncnc4)cc3)C2=S)cnc1C#N` [Compound 103, 3-Methyl-5-(8-oxo-5-(4-(pyrimidin-5-yl)phenyl)-6-thioxo-5,7-diazaspiro[3.4]octan-7-yl)picolinonitrile]: the concentration for half-maximal inhibition (IC50) was < 1000 nM.

Take `CNC(=O)c1ccc(N2C(=S)N(c3cnc(C#N)c(C)c3)C(=O)C23CCC3)cc1Cl` [Compound 108, 2-Chloro-4-(7-(6-cyano-5-methylpyridin-3-yl)-8-oxo-6-thioxo-5,7-diazaspiro[3.4]octan-5-yl)-N-methylbenzamide]: the half-maximal inhibitory concentration (IC50) is < 1000 nM.

For `CNC(=O)c1ccc(N2C(=S)N(c3cnc(C#N)c(C)c3)C(=O)C23CCC3)cc1C(F)(F)F` [Compound 109, 4-(7-(6-Cyano-5-methylpyridin-3-yl)-8-oxo-6-thioxo-5,7-diazaspiro[3.4]octan-5-yl)-N-methyl-2-(trifluoromethyl)benzamide], the IC50 is < 1000 nM.

With `N#Cc1ncc(N2C(=O)C3(CCC3)N(c3cccc4ccccc34)C2=S)cc1C(F)(F)F` [Compound 110, 5-(5-(Naphthalen-1-yl)-8-oxo-6-thioxo-5,7-diazaspiro[3.4]octan-7-yl)-3-(trifluoromethyl)picolinonitrile], the IC50 is < 1000 nM.

Consider `Cc1cc(N2C(=O)C3(CCC3)N(c3ccc(C4CCOCC4)cc3)C2=S)cnc1C#N` [Compound 112, 3-Methyl-5-(8-oxo-5-(4-(tetrahydro-2H-pyran-4-yl)phenyl)-6-thioxo-5,7-diazaspiro[3.4]octan-7-yl)picolinonitrile], for which the IC50 is < 1000 nM.

For the compound `Cc1ccc(N2C(=S)N(c3cc(C#N)n(C)c3)C(=O)C23CCC3)cc1` [Compound 114, 1-Methyl-4-(8-oxo-6-thioxo-5-(p-tolyl)-5,7-diazaspiro[3.4]octan-7-yl)-1H-pyrrole-2-carbonitrile], the half-inhibitory concentration (IC50) was > 1000 nM.

Regarding `CC(C)(C)OC(=O)N1CCN(c2ccc(N3C(=S)N(c4cnc(C#N)c(C(F)(F)F)c4)C(=O)C34CCC4)cc2)CC1` [Compound 119, tert-Butyl 4-(4-(7-(6-cyano-5-(trifluoromethyl)pyridin-3-yl)-8-oxo-6-thioxo-5,7-diazaspiro[3.4]octan-5-yl)phenyl)piperazine-1-carboxylate], the IC50 is < 1000 nM.

Consider `CNS(=O)(=O)c1ccc(N2C(=S)N(c3cnc(C#N)c(C(F)(F)F)c3)C(=O)C23CCC3)cc1` [Compound 120, 4-(7-(6-Cyano-5-(trifluoromethyl)pyridin-3-yl)-8-oxo-6-thioxo-5,7-diazaspiro[3.4]octan-5-yl)-N-methylbenzenesulfonamide], for which the IC50 is > 1000 nM.

`CN1CCN(CCCc2ccc(N3C(=S)N(c4cnc(C#N)c(C(F)(F)F)c4)C(=O)C34CCC4)cc2)CC1` [Compound 124, 5-(5-(4-(3-(4-Methylpiperazin-1-yl)propyl)phenyl)-8-oxo-6-thioxo-5,7-diazaspiro[3.4]octan-7-yl)-3-(trifluoromethyl)picolinonitrile]: the IC50 is < 1000 nM.

Take `N#Cc1ncc(N2C(=O)C3(CCC3)N(c3ccc(OCCN4CCCC4)c(F)c3)C2=S)cc1C(F)(F)F` [Compound 127, 5-(5-(3-Fluoro-4-(2-(pyrrolidin-1-yl)ethoxy)phenyl)-8-oxo-6-thioxo-5,7-diazaspiro[3.4]octan-7-yl)-3-(trifluoromethyl)picolinonitrile]: the IC50 is < 1000 nM.

For the compound `N#Cc1ncc(N2C(=O)C3(CCC3)N(c3ccc(OCCCC(F)(F)C(F)(F)F)c(F)c3)C2=S)cc1C(F)(F)F` [Compound 134, 5-(5-(3-Fluoro-4-((4,4,5,5,5-pentafluoropentyl)oxy)phenyl)-8-oxo-6-thioxo-5,7-diazaspiro[3.4]octan-7-yl)-3-(trifluoromethyl)picolinonitrile], the IC50 was < 1000 nM.

With `N#Cc1ncc(N2C(=O)C3(CCC3)N(c3ccc(OCCCOCc4ccccc4)c(F)c3)C2=S)cc1C(F)(F)F` [Compound 135, 5-(5-(4-(3-(Benzyloxy)propoxy)-3-fluorophenyl)-8-oxo-6-thioxo-5,7-diazaspiro[3.4]octan-7-yl)-3-(trifluoromethyl)picolinonitrile], the half-maximal inhibitory concentration (IC50) was < 1000 nM.

Regarding `Cc1ccccc1CCOc1ccc(N2C(=S)N(c3cnc(C#N)c(C(F)(F)F)c3)C(=O)C23CCC3)cc1F` [Compound 137, 5-(5-(3-Fluoro-4-(2-methylphenethoxy)phenyl)-8-oxo-6-thioxo-5,7-diazaspiro[3.4]octan-7-yl)-3-(trifluoromethyl)picolinonitrile], the IC50 was < 1000 nM.

In the case of `N#Cc1ncc(N2C(=O)C3(CCC3)N(c3ccc(OCCC(F)(F)C(F)(F)F)c(F)c3)C2=S)cc1C(F)(F)F` [Compound 139, 5-(5-(3-Fluoro-4-(3,3,4,4,4-pentafluorobutoxy)phenyl)-8-oxo-6-thioxo-5,7-diazaspiro[3.4]octan-7-yl)-3-(trifluoromethyl)picolinonitrile], the IC50 is < 1000 nM.

As to `N#Cc1ncc(N2C(=O)C3(CCC3)N(c3ccc(OCCc4ccncc4)c(F)c3)C2=S)cc1C(F)(F)F` [Compound 142, 5-(5-(3-Fluoro-4-(2-(pyridin-4-yl)ethoxy)phenyl)-8-oxo-6-thioxo-5,7-diazaspiro[3.4]octan-7-yl)-3-(trifluoromethyl)picolinonitrile], the IC50 was < 1000 nM.

For the compound `N#Cc1ncc(N2C(=O)C3(CCC3)N(c3ccc(OCCCc4cccnc4)c(F)c3)C2=S)cc1C(F)(F)F` [Compound 145, 5-(5-(3-Fluoro-4-(3-(pyridin-3-yl)propoxy)phenyl)-8-oxo-6-thioxo-5,7-diazaspiro[3.4]octan-7-yl)-3-(trifluoromethyl)picolinonitrile], the IC50 is < 1000 nM.

Consider `N#Cc1ncc(N2C(=O)C3(CCC3)N(c3ccc(OCc4ccccn4)c(F)c3)C2=S)cc1C(F)(F)F` [Compound 147, 5-(5-(3-Fluoro-4-(pyridin-2-ylmethoxy)phenyl)-8-oxo-6-thioxo-5,7-diazaspiro[3.4]octan-7-yl)-3-(trifluoromethyl)picolinonitrile], for which the IC50 was < 1000 nM.
